Patent US9573983B2, “Compositions including I-domain antigen conjugate compounds and methods for treatment of autoimmune disorders” (University of Kansas, priority 2012, dated 2017)

Experiments:
[1] = Solubility of peptide during conjugation; type: physicochemical; conditions: conjugation reaction mixture; peptide dissolved in DMSO before addition
mouse EAE model = assay: Suppression of EAE in PLP139-151/CFA-immunized mice (Example 1); type: in vivo, female inbred SJL/J mice; conditions: i.v., IDAC 26 nmol/injection days 4, 7, Ac-PLP-BPI-NH2-2 100 nmol/injection days 4, 7, 10, vs PBS
Experimental: Female inbred SJL/J mice, 5-7 weeks old, were randomly divided into different groups. All mice were immunized with PLP139-151 in Freund's complete adjuvant (CFA) to induce EAE, as reported previously (3, 4). The PLP/CFA emulsion (50 μL per site) was administered to four separate regions above the shoulder and on the flanks. In addition, 200 ng of pertussis toxin (List Biological Laboratories Inc., Campbell, Calif.) was injected intraperitoneally on day 0 and 2.
After disease stimulation, one group of mice received intravenous (i.v.) injections of 26 nmol/injection/day of the conjugate IDAC on days 4 and 7. The second and third groups of mice received i.v. injections of 100 nmol/injection/day of Ac-PLP-BPI-NH2-2 and 100 microliter of PBS, respectively, on days 4, 7, and 10. The animals were weighed and observed daily. Disease progression was evaluated observed using a blinded method as reported previously (3, 4). The clinical scores were rated using the following scale: 0—no clinical signs of disease; 1—tail weakness or limp tail; 2—paraparesis (weakness or incomplete paralysis of one or two hind limbs); 3—paraplegia (complete paralysis of two hind limbs); 4—paraplegia with forelimb weakness or paralysis; and 5—moribund or dead.
Statistical differences among the groups in clinical disease scores were determined by calculating the average score for each mouse from the day of disease onset to day 20 by One-way Analysis of Variance followed by Fisher's least significant difference using StatView (SAS Institute, Cary, N.C.). Statistical differences among the groups in body weight were also analyzed in the same way. The presence of significant difference is denoted with p-values of <0.05 or <0.001.

EAE mouse model [2] = conditions: earlier study (ref. 7); cited from earlier work
EAE mouse model [3] = assay: Suppression of EAE, prophylactic and vaccine-like treatment (Example 2); type: in vivo, SJL/J female mice
Experimental: Six-to-eight week old SJL/J female mice were immunized subcutaneously with 200 μg PLP139-151 peptide in a 0.2 ml emulsion consisting of equal volumes of PBS and complete Freund's adjuvant (CFA) containing killed mycobacterium tuberculosis strain H37RA at a final concentration of 4 mg/ml (Difco, Detroit, Mich.). The PLP/CFA emulsion was administered to regions above the shoulder and the flanks (total of 4 sites, 50 μl at each injection site). In addition, 200 ng of pertussis toxin was injected intraperitoneally on the day of immunization (day 0) and 2 days post-immunization.
The mice then received either intravenous or subcutaneous injections of IDAC (10 or 26 nmol/injection) or peptides (100 nmol/injection for Ac-PLP-BPI-NH2-2 or 50 nmol/injection/mouse for Ac-PLP-cIBR1-NH2). The prophylactic disease suppression was carried out with subcutaneous or intravenous injections of IDAC molecules on days 4 and 7, or BPI molecules on days 4, 7, and 10. Mice receiving vaccine-like treatment were given subcutaneous injections of IDAC and BPI molecules at 11, 8, and 5 days prior to the induction of disease. As negative controls, mice were treated with PBS, 1-domain, and GMB-I-domain. Disease progression was evaluated by monitoring the change in weight of the mice and clinical scoring based on the severity of nerve damage ranging from 0 to 5: 0—no clinical symptoms of disease; 1—tail weakness or limp tail; 2—paraparesis (weakness or partial paralysis of one or two hind limbs); 3—paraplegia (complete paralysis of two hind limbs); 4—paraplegia with forelimb weakness or paralysis; 5—moribund (at this point, the affected mice were euthanized).
Statistical differences among the groups in clinical disease scores were determined by calculating the average score for each mouse from day 12 to day 17 by one-way analysis of variance followed by Fisher's least significant difference. Statistical differences in body weight among groups were also analyzed in the same fashion, but from day 12 to day 24. Comparison of cytokine concentrations was also performed by one-way analysis of variance. All analyses were performed using StatView (SAS Institute, Cary, N.C.).

[4] = Hydrolysis of maleimide groups upon storage; type: physicochemical; conditions: storage after SEC purification; to be used within 48 h

In the case of “Ac-GWYRSPFSRVVHLC-NH2 [MOG-Cys, Ac-GWYRSPFSRVVHLC-NH2]”, the solubility [1] is reported as “low solubility”.

In the case of “Ac-HSLGKWLGHPDKF-(AcpGAcpGAcp)2-ITDGEATDSG-NH2 [Ac-PLP-BPI-NH2-2, reference compound]”, the “clinical disease scores (suppression of EAE)” value (mouse EAE model; p<0.0001, days 12-17) is given as “complete suppression of the disease”, the incidence of disease (mouse EAE model; p<0.0001, days 12-24) is given as “completely eliminated” and the “suppression of EAE, capped vs uncapped peptide” value (EAE mouse model [2]) is given as “could suppress EAE better than its uncapped counterpart (PLP-BPI)”. For the same molecule, the “clinical scores (suppression of EAE)” value (EAE mouse model [3]; vaccine-like s.c. days -11, -8, -5, IDAC-3 10 nmol/injection, Ac-PLP-BPI-NH2-2 100 nmol/injection, vs PBS, p<0.005, days 12-17) was “significantly suppressed EAE compared to PBS”, the “change in body weight” value (EAE mouse model [3]; vaccine-like s.c. days -11, -8, -5, IDAC-3 10 nmol/injection, Ac-PLP-BPI-NH2-2 100 nmol/injection, vs PBS, p<0.005, days 12-24) was “significantly suppressed EAE compared to PBS” and the “onset of disease (incidence of disease)” value (EAE mouse model [3]; vaccine-like s.c., IDAC-3 26 nmol/injection days -11, -8, Ac-PLP-BPI-NH2-2 100 nmol/injection days -11, -8, -5) was “Delay in the onset of disease”. The “relapse of disease (long-term effect)” value (EAE mouse model [3]; vaccine-like s.c., IDAC-3 26 nmol/injection days -11, -8, Ac-PLP-BPI-NH2-2 100 nmol/injection days -11, -8, -5, days 45-55) was “along-term effect to prevent relapse”.

B1: [N-(γ-maleimido)-1-oxybutyl]n-I-domain (protein, listed as Homo sapiens)
chain: MGNVDLVFLFDGSMSLQPDEFQKILDFMKDVMKKLSNTSYQFAAVQFSTSYKTEFDFSDYVKRKDPDALLKHVKHMLLLTNTFGAINYVATEVFREELGARPDATKVLIIITDGEATDSGNIDAAKDIIRYIIGIGKHFQTKESQETLHKFASKPASEFVKILDTFEKLKDLFTELQKKIY
modifications: GMBS maleimide-modified lysines
notes: I-domain with lysine amino groups modified by GMBS to carry maleimide groups; negative control and intermediate
With B1 the “formation of maleimide hydrolysis products (stability)” value [4] was “increased upon storage”, the “suppression of progress of EAE (clinical score, change in body weight, incidence of disease)” value (EAE mouse model [3]; two i.v. injections, 26 nmol/injection, days 4 and 7, vs PBS) was “neither the I-domain nor GMB-I-domain significantly suppressed the progress of EAE” and the onset of disease (EAE mouse model [3]; two i.v. injections, 26 nmol/injection, days 4 and 7, vs PBS, I-domain controls) was “slight delay in the onset of the disease”.
